Reference: ChEMBL document CHEMBL3352001, “2,4-Dialkyl-8,9,10,11-tetrahydrobenzo[g]pyrimido[4,5-c]isoquinoline-1,3,7,12(2H,4H)-tetraones as new leads against Mycobacterium tuberculosis” (Eur J Med Chem, 2014)
Converted amounts (≈) assume the structure as drawn. “And” between values parts separate entries of the source, which are not always exact repeats. Equal entries are not always repeated. The source made the active and inactive calls. No cut-off for these calls is given here.

How the values were obtained:
[1] = system: Mycobacterium tuberculosis; test: Antimycobacterial activity against Mycobacterium tuberculosis H37Rv transformed with pSMT1 luciferase reporter plasmid assessed as growth inhibition after 6 days by luminometry; type: functional; conditions: for GI50: Mycobacterium tuberculosis, H37Rv, 144 h
[2] = system: Mycobacterium tuberculosis; test: Antimicrobial activity against multi-drug resistant Mycobacterium tuberculosis LAM-1 strain clinical isolate assessed as critical concentration to induce 99% growth reduction at 10 to 20 ug/mL by BACTEC_MGIT_960-TB detection system; type: functional
[3] = system: Mycobacterium tuberculosis; test: Antimicrobial activity against multi-drug resistant Mycobacterium tuberculosis LAM-1 strain clinical isolate assessed as growth reduction at 0.1 ug/mL by BACTEC_MGIT_960-TB detection system; type: functional, organism-based
[4] = system: Mycobacterium tuberculosis; test: Antimicrobial activity against multi-drug resistant Mycobacterium tuberculosis LAM-1 strain clinical isolate assessed as growth reduction by BACTEC_MGIT_960-TB detection system; type: functional

SMILES	GI90 [1] [µg/mL]	GI99 [1]	GI50 [1] [µg/mL]	INH [2] [µg/mL]	inhibition [3]	MIC [4] [µg/mL]
CCCn1c(=O)c2c3c(cnc2n(CCC)c1=O)C(=O)C1=C(C3=O)C2CCC1C2 (stereo not drawn)	4.28 (≈ 10.9 µM)	6.23 µg/mL	1.73 (≈ 4.4 µM)	–	–	–
CC(C)n1c(=O)c2c3c(cnc2n(C(C)C)c1=O)C(=O)C1=C(C3=O)C2CCC1CC2	2.32 (≈ 5.69 µM)	4.89 µg/mL	0.73 (≈ 1.79 µM)	10	–	–
CCn1c(=O)c2c3c(cnc2n(CC)c1=O)C(=O)C1=C(C3=O)C2CCC1CC2	4.33 (≈ 11.4 µM)	12.06 µg/mL	2.55 (≈ 6.72 µM)	–	–	–
CCCCCn1c(=O)c2c3c(cnc2n(CCCCC)c1=O)C(=O)C1=C(C3=O)C2CCC1CC2	4.78 (≈ 10.3 µM)	13.37 µg/mL	1.49 (≈ 3.21 µM)	–	–	–
CCCCCn1c(=O)c2c3c(cnc2n(CCCCC)c1=O)C(=O)C1=C(C3=O)C2CCC1C2 (stereo not drawn)	4.09 (≈ 9.1 µM)	9.54 µg/mL	1.26 (≈ 2.8 µM)	–	–	–
CCCCCCn1c(=O)c2c3c(cnc2n(CCCCCC)c1=O)C(=O)C1=C(C3=O)C2CCC1C2 (stereo not drawn)	5.43 (≈ 11.4 µM)	11.6 µg/mL	1.22 (≈ 2.55 µM)	–	–	–
CC(C)C1CCc2ncc3c(c2C1=O)C(=O)C1=C(C3=O)C2CCC1C2 (stereo not drawn)	39.2 (≈ 117 µM)	>100 µg/mL	20.4 (≈ 60.8 µM)	–	–	–
CCn1c(=O)c2c3c(cnc2n(CC)c1=O)C(=O)C1=C(C3=O)C2CCC1C2 (stereo not drawn)	5.32 (≈ 14.6 µM)	9.21 µg/mL	1.69 (≈ 4.63 µM)	–	–	–
CC(C)Cn1c(=O)c2c3c(cnc2n(CC(C)C)c1=O)C(=O)C1=C(C3=O)C2CCC1CC2	9.31 (≈ 21.4 µM)	12.28 µg/mL	4.36 (≈ 10 µM)	–	–	–
CCCn1c(=O)c2c3c(cnc2n(CCC)c1=O)C(=O)C1=C(C3=O)C2CCC1CC2	5.98 (≈ 14.7 µM)	7.34 µg/mL	2.59 (≈ 6.36 µM)	–	–	–
CC(C)CCn1c(=O)c2c3c(cnc2n(CCC(C)C)c1=O)C(=O)C1=C(C3=O)C2CCC1CC2	10.33 (≈ 22.3 µM)	22.88 µg/mL	4.9 (≈ 10.6 µM)	–	–	–
CCCCn1c(=O)c2c3c(cnc2n(CCCC)c1=O)C(=O)C1=C(C3=O)C2CCC1C2 (stereo not drawn)	4.59 (≈ 10.9 µM)	7.23 µg/mL	1.46 (≈ 3.46 µM)	–	–	–
Cn1c(=O)c2c3c(cnc2n(C)c1=O)C(=O)C1=C(C3=O)C2CCC1C2 (stereo not drawn)	5.87 (≈ 17.4 µM)	10.43 µg/mL	1.58 (≈ 4.68 µM)	–	–	–
Cn1c(=O)c2c3c(cnc2n(C)c1=O)C(=O)C1=C(C3=O)C2CCC1CC2	6.98 (≈ 19.9 µM)	15.43 µg/mL	2.83 (≈ 8.05 µM)	–	–	–
CC(C)CCn1c(=O)c2c3c(cnc2n(CCC(C)C)c1=O)C(=O)C1=C(C3=O)C2CCC1C2 (stereo not drawn)	8.11 (≈ 18 µM)	16.32 µg/mL	2.41 (≈ 5.36 µM)	–	–	–
CCCCn1c(=O)c2c3c(cnc2n(CCCC)c1=O)C(=O)C1=C(C3=O)C2CCC1CC2	5.2 (≈ 11.9 µM)	9.6 µg/mL	1.84 (≈ 4.22 µM)	–	–	–
CC(C)C1CCC(=O)c2c1ncc1c2C(=O)C2=C(C1=O)C1CCC2C1 (stereo not drawn)	–	24.66 µg/mL and 48.06 µg/mL	5.55 (≈ 16.5 µM)	–	–	–
CCCCCCCn1c(=O)c2c3c(cnc2n(CCCCCCC)c1=O)C(=O)C1=C(C3=O)C2CCC1C2 (stereo not drawn)	2.45 (≈ 4.85 µM)	5.57 µg/mL	0.63 (≈ 1.25 µM)	10	–	–
CCCCCCn1c(=O)c2c3c(cnc2n(CCCCCC)c1=O)C(=O)C1=C(C3=O)C2CCC1CC2	6.13 (≈ 12.5 µM)	14.89 µg/mL	1.36 (≈ 2.77 µM)	–	–	–
NNC(=O)c1ccncc1 [ISONIAZID]	–	0.04 µg/mL and 0.06 µg/mL	0.01 (≈ 0.0729 µM)	–	inactive	–
CC(C)n1c(=O)c2c3c(cnc2n(C(C)C)c1=O)C(=O)C1=C(C3=O)C2CCC1C2 (stereo not drawn)	1.5 (≈ 3.81 µM)	3 µg/mL	0.52 (≈ 1.32 µM)	5	–	5 (≈ 12.7 µM)
CCCCCCCn1c(=O)c2c3c(cnc2n(CCCCCCC)c1=O)C(=O)C1=C(C3=O)C2CCC1CC2	3.78 (≈ 7.27 µM)	6.89 µg/mL	1.32 (≈ 2.54 µM)	10	–	–
CC(C)Cn1c(=O)c2c3c(cnc2n(CC(C)C)c1=O)C(=O)C1=C(C3=O)C2CCC1C2 (stereo not drawn)	5.3 (≈ 12.6 µM)	11.01 µg/mL	2.08 (≈ 4.93 µM)	–	–	–
